These are literature values, as cited in patent publication US20170027976A1, “NOVEL ADEMETIONINE FORMULATIONS” (METHYLATION SCIENCES INTERNATIONAL SRL, priority 2014, published 2017).

The conditions of the data set: background statement; large daily doses required.

With `C[S+](CC[C@H](N)C(=O)[O-])C[C@H]1O[C@@H](n2cnc3c(N)ncnc32)[C@H](O)[C@@H]1O` (stereo partly drawn) [ademetionine, S-adenosyl-L-methionine], the uptake of ademetionine is recorded as below 5%.
